Results published in patent US11279733B2, “Peptide antibiotics” (priority 2017, dated 2022).
Converted amounts (≈) assume the structure as drawn. Read-outs that look alike come from different tables or passages of the source. Positions of bridges follow the written chain, without caps; N, C: chain ends. Non-standard residues stand in square brackets, D forms with d. Residues, ends and D or L forms follow the SMILES beside them. ξ: configuration not given here. *: point of attachment. Decanoyl(3R-OH) = CCCCCCC[C@@H](O)CC(=O)*; Decanoyl(3ξ-OH) = CCCCCCCC(O)CC(=O)*; dDab = NCC[C@@H](N)C(=O)O; Dab = NCC[C@H](N)C(=O)O; Dap = NC[C@H](N)C(=O)O

Key:
A. baumannii ATCC 19606 = details: ATCC 19606
Method in brief: (§1)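 Mid-log cultures grown in Mueller Hinton broth at 37° C were tested by 2-fold broth microdilution at 5×10^5 CFU/mL final. Compounds were dissolved in water and tested over a final range of 32 to 0.015 μg/mL.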

A. baumannii GN_093 PmxR = details: GN 093 PmxR
Method in brief: as §1

E. coli ATCC 25922 = details: ATCC 25922
Method in brief: as §1

K. pneumoniae ATCC 13883 = details: ATCC 13883
Method in brief: as §1

[1] = tested on: K. pneumoniae ATCC 700603, MDR; details: ATCC 700603
Method in brief: as §1

[2] = tested on: K. pneumoniae ATCC BAA-2146, NDM-1 pos; details: ATCC BAA-2146
Method in brief: as §1

[3] = tested on: K. pneumoniae GN_102 PmxR; details: GN 102 PmxR
Method in brief: as §1

[4] = tested on: K. pneumoniae GN_106, PmxR; details: GN 106, PmxR
Method in brief: as §1

P. aeruginosa ATCC 27853 = details: ATCC 27853
Method in brief: as §1

[5] = tested on: P. aeruginosa GN_043, PmxR
Method in brief: as §1

[6] = tested on: P. aeruginosa GN_105, PmxR; details: GN 105, PmxR
Method in brief: as §1

[7] = tested on: S. aureus ATCC 25923, MSSA; details: ATCC 25923
Method in brief: as §1

in vitro = details: human
Description: Cytotoxicity of the synthesised peptides was evaluated by comparison with commercially available colistin (polymyxin E), polymyxin B (Sigma chemical Co., St. Louis, Mo., U.S.A.) and synthetic octapeptin C4 by conducting lactate dehydrogenase (LDH) assay. CC50 values calculated based on curve fitting of dose dependent inhibition of cell growth represented the cytotoxicity of the peptide. Human kidney 2 (HK2) cells were seeded as 2000 cells per well in a 384 well cell culture plate in a final volume of 20 μL in DMEM/F12 medium (Invitrogen #11330057), in which 10% of FBS was added. Cells were incubated for 24 hours at 37° C., 5% CO2 to allow cells to attach to the plates. Similar conditions were employed for HEK293 and HepG2 cytotoxicity assays.
Cytotoxicity to HEK293 and HepG2 cells was determined using the resazurin assay (McMillian, M. K.; Li, L.; Parker, J. B.; Patel, L.; Zhong, Z.; Gunnett, J. W.; Powers, W. J.; Johnson, M. D. An improved resazurin-based cytotoxicity assay for hepatic cells; Cell Biol. Toxicol. 2002, 18, 157-173; O'Brien, J.; Wilson, I.; Orton, T.; Pognan, F. Investigation of the Alamar Blue (resazurin) fluorescent dye for the assessment of mammalian cell cytotoxicity. Eur. J. Biochem. 2000, 267, 5421-5426). In brief, HEK293 and HepG2 cells were seeded at 4000 cells/well in black-wall, clear-bottom 384-well plates (Corning, Australia) and incubated for 24 h at 37° C., 5% CO2. Compounds were then added into each well. After 24 h incubation, 5 μM resazurin was added per well and incubated at 37° C. for 2 h. Fluorescence intensity was then read using a Polarstar Omega with excitation/emission 560/590. The data was then analyzed using GraphPad Prism 6 software. CC50 values were determined using GraphPad Prism 6 software (Inc. La Jolla, Calif.).

Structure (SMILES) | MIC A. baumannii ATCC 19606 (A. baumannii ATCC 19606) | MIC A. baumannii GN_093 PmxR (A. baumannii GN_093 PmxR) | MIC E. coli ATCC 25922 (E. coli ATCC 25922) | MIC K. pneumoniae ATCC 13883 (K. pneumoniae ATCC 13883) | MIC K. pneumoniae ATCC 700603, MDR [1] | MIC K. pneumoniae ATCC BAA-2146, NDM-1 pos [2] | MIC K. pneumoniae GN_102 PmxR [3] | MIC K. pneumoniae GN_106, PmxR [4] | MIC P. aeruginosa ATCC 27853 (P. aeruginosa ATCC 27853) | MIC P. aeruginosa GN_105, PmxR [6] | MIC S. aureus ATCC 25923, MSSA [7] | CC50 at 24 h (in vitro) | MIC, A. baumannii ATCC 19606 (A. baumannii ATCC 19606) | MIC, E. coli ATCC 25922 (E. coli ATCC 25922) | MIC, K. pneumoniae ATCC 13883 (K. pneumoniae ATCC 13883) | MIC, K. pneumoniae ATCC 700603, MDR [1] | MIC, K. pneumoniae ATCC BAA-2146, NDM-1 pos [2] | MIC, P. aeruginosa ATCC 27853 (P. aeruginosa ATCC 27853) | MIC P. aeruginosa GN_043, PmxR ([5]; Table 6, polymyxin-resistant) | MIC, S. aureus ATCC 25923, MSSA [7] | also measured
CCCCCCCC(O)CC(=O)N[C@H](CCN)C(=O)N[C@H]1CCNC(=O)[C@H](CC(C)C)NC(=O)[C@H](CCN)NC(=O)[C@H](CCN)NC(=O)[C@H](CC(C)C)NC(=O)[C@@H](Cc2ccccc2)NC(=O)[C@H](CCN)NC1=O (stereo partly drawn) [compound 5013, 3OH-nC9CO-D-Dab-cyc[L-Dab-L-Dab-D-Phe-L-Leu-L-Dab-L-Dab-L-Leu]] ({Decanoyl(3ξ-OH)}-[dDab][Dab][Dab][dF]L[Dab][Dab]L; lactam 2-C) | 16 µg/mL (≈ 15.3 µM) | 8 µg/mL (≈ 7.66 µM) | 8 µg/mL (≈ 7.66 µM) | 4 µg/mL (≈ 3.83 µM) | 8 µg/mL (≈ 7.66 µM) | 16 µg/mL (≈ 15.3 µM) | 4 µg/mL (≈ 3.83 µM) | 16 µg/mL (≈ 15.3 µM) | 2 µg/mL (≈ 1.92 µM) | 2 µg/mL (≈ 1.92 µM) | 16 µg/mL (≈ 15.3 µM) | > 300 µM | – | – | – | – | – | – | – | – | MIC P. aeruginosa GN_043, PmxR [5]: 2 µg/mL (≈ 1.92 µM)
CCCCCCC[C@@H](O)CC(=O)N[C@H](CCCCN)C(=O)N[C@H]1CCNC(=O)[C@H](CC(C)C)NC(=O)[C@H](CCN)NC(=O)[C@H](CCN)NC(=O)[C@H](CC(C)C)NC(=O)[C@@H](Cc2ccccc2)NC(=O)[C@H](CCN)NC1=O [compound 5381, 3(R)OH-nC9CO-D-Lys-cyc[L-Dab-L-Dab-D-Phe-L-Leu-L-Dab-L-Dab-L-Leu]] ({Decanoyl(3R-OH)}-[dK][Dab][Dab][dF]L[Dab][Dab]L; lactam 2-C) | – | 8 µg/mL (≈ 7.46 µM) | – | – | – | – | 4 µg/mL (≈ 3.73 µM) | 4 µg/mL (≈ 3.73 µM) | – | 4 µg/mL (≈ 3.73 µM) | – | > 300 µM | 16 µg/mL (≈ 14.9 µM) | 8 µg/mL (≈ 7.46 µM) | 8 µg/mL (≈ 7.46 µM) | 4 µg/mL (≈ 3.73 µM) | 8 µg/mL (≈ 7.46 µM) | 4 µg/mL (≈ 3.73 µM) | 2 µg/mL (≈ 1.86 µM) | >32 µg/mL | –
CCCCCCC[C@@H](O)CC(=O)N[C@H](CCN)C(=O)N[C@H]1CCCCNC(=O)[C@H](CC(C)C)NC(=O)[C@H](CCN)NC(=O)[C@H](CCN)NC(=O)[C@H](CC(C)C)NC(=O)[C@@H](Cc2ccccc2)NC(=O)[C@H](CCN)NC1=O [compound 5382, 3(R)OH-nC9CO-D-Dab-cyc[L-Lys-L-Dab-D-Phe-L-Leu-L-Dab-L-Dab-L-Leu]] ({Decanoyl(3R-OH)}-[dDab]K[Dab][dF]L[Dab][Dab]L; lactam 2-C) | 32 µg/mL (≈ 29.8 µM) | >32 µg/mL | 4 µg/mL (≈ 3.73 µM) | 8 µg/mL (≈ 7.46 µM) | 8 µg/mL (≈ 7.46 µM) | 8 µg/mL (≈ 7.46 µM) | >32 µg/mL | >32 µg/mL | 4 µg/mL (≈ 3.73 µM) | 2 µg/mL (≈ 1.86 µM) | 32 µg/mL (≈ 29.8 µM) | > 300 µM | – | – | – | – | – | – | – | – | MIC P. aeruginosa GN_043, PmxR ([5]; P. aeruginosa GN_043, PmxR): 2 µg/mL (≈ 1.86 µM)
CCCCCCC[C@@H](O)CC(=O)N[C@@H](CN)C(=O)N[C@H]1CCNC(=O)[C@H](CC(C)C)NC(=O)[C@H](CCN)NC(=O)[C@H](CCN)NC(=O)[C@H](CC(C)C)NC(=O)[C@@H](Cc2ccccc2)NC(=O)[C@H](CCN)NC1=O [compound 5561, 3(R)OH-nC9CO-L-Dap-cyc[L-Dab-L-Dab-D-Phe-L-Leu-L-Dab-L-Dab-L-Leu]] ({Decanoyl(3R-OH)}-[Dap][Dab][Dab][dF]L[Dab][Dab]L; lactam 2-C) | – | 8 µg/mL (≈ 7.76 µM) | – | – | – | – | 4 µg/mL (≈ 3.88 µM) | 4 µg/mL (≈ 3.88 µM) | – | 2 µg/mL (≈ 1.94 µM) | – | > 300 µM | 16 µg/mL (≈ 15.5 µM) | 4 µg/mL (≈ 3.88 µM) | 4 µg/mL (≈ 3.88 µM) | 8 µg/mL (≈ 7.76 µM) | 8 µg/mL (≈ 7.76 µM) | 2 µg/mL (≈ 1.94 µM) | 2 µg/mL (≈ 1.94 µM) | 16 µg/mL (≈ 15.5 µM) | –
